# Literature values as cited in US20140243428A1, “SELF HEALING HYDROGELS” (The Regents of the University of California, priority 2013, published 2014).
smiles,measurement,value
NCCCCCC(=O)O [6-aminocaproic acid],pKa,4.4
